Measurements as given in the supplement of paper PMC10331698.
± gives the standard deviation of the averaged measurements.

Key:
[1] = compound: T1, O=C(O)C(F)(F)C(F)(F)C(F)(F)C(F)(F)C(F)(F)C(F)(F)C(F)(F)C(F)(F)C(F)(F)C(F)F [11-H-Perfluoroundecanoic acid]; experiment: LOEC (log10 uM (lowest observed effect concentration))
Description: (§1)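 BioMAP Diversity Plus panel in human primary cell co-cultures, 4 concentrations in duplicate blinded samples. Responses are log10 fold change versus DMSO control, processed with tcpl v2.1.0. A hit is called when responses at any concentration exceed the cutoff (the larger of 3*bmad or log10(1.2)); the lowest observed effect concentration (modl_ga, log10 uM) is reported for hits.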

[2] = compound: T2, C=CC(=O)OCC(F)(F)C(F)(F)C(F)(F)COC(=O)C=C [1H,1H,5H,5H-Perfluoro-1,5-pentanediol diacrylate]; experiment: as above
Description: as §1

[3] = compound: COC(=O)C(F)(F)C(F)(F)OC(F)(C(F)(F)F)C(F)(F)OC(F)=C(F)F [Methyl perfluoro(3-(1-ethenyloxypropan-2-yloxy)propanoate)]; experiment: level (log10 ratio to DMSO vehicle control); higher = higher biomarker level / cell amount than vehicle control; conditions: in DMSO
Description: (§2)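 BioMAP Diversity Plus panel of 12 human primary cell co-culture systems (3C, 4H, LPS, SAg, BT, BF4T, BE3C, CASM3C, HDF3CGF, KF3CT, MyoF, Mphg). Compounds were added 1 h before stimulation and left for 24 h (MyoF 48 h; BT 72 h for soluble read-outs or 6 d for IgG). Biomarkers were read by ELISA, cytotoxicity by SRB, PBMC viability and proliferation by Alamar Blue. Each well value was divided by the mean of 8 DMSO control wells on the same plate and log10 transformed; duplicate blinded samples were tested at 4 concentrations.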

[4] = compound: O=S(=O)(F)C(F)(F)C(F)(F)C(F)(F)C(F)(F)C(F)(F)C(F)(F)C(F)(F)C(F)(F)F [Perfluorooctanesulfonyl fluoride]; experiment: as above; conditions: in DMSO
Description: as §2

[5] = compound: NC(=O)C(F)(F)C(F)(F)C(F)(F)C(F)F; experiment: as above; conditions: in DMSO
Description: as §2

[6] = compound: O=C(O)C=CC(F)(C(F)(F)F)C(F)(F)F [3-(Perfluoroisopropyl)-2-propenoic acid]; experiment: as above; conditions: in DMSO
Description: as §2

[7] = compound: O=S(=O)(O)C(F)(F)C(F)(F)C(F)(F)C(F)(F)C(F)(F)C(F)(F)C(F)(F)C(F)(F)C(F)(F)C(F)(F)F [Sodium perfluorodecanesulfonate]; experiment: as above; conditions: in DMSO
Description: as §2

[8] = compound: T2, 1H,1H,5H,5H-Perfluoro-1,5-pentanediol diacrylate; experiment: as above; conditions: 6700 nM; in DMSO
Description: as §2

Hexafluoroamylene glycol = compound: OCC(F)(F)C(F)(F)C(F)(F)CO [Hexafluoroamylene glycol]; experiment: as above; conditions: in DMSO
Description: as §2

[9] = compound: FC(F)(F)C(F)(F)C(F)(F)C(F)(F)C(F)(F)C(F)(F)C(F)(F)I [1-Iodopentadecafluoroheptane]; experiment: as above; conditions: in DMSO
Description: as §2

[10] = compound: O=S(=O)(Cl)C(F)(F)C(F)(F)C(F)(F)C(F)(F)C(F)(F)C(F)(F)C(F)(F)C(F)(F)F [Perfluoro-1-octanesulfonyl chloride]; experiment: as above; conditions: in DMSO
Description: as §2

[11] = compound: NS(=O)(=O)C(F)(F)C(F)(F)C(F)(F)C(F)(F)C(F)(F)C(F)(F)F [Perfluorohexanesulfonamide]; experiment: as above; conditions: in DMSO
Description: as §2

Octafluoroadipamide = compound: NC(=O)C(F)(F)C(F)(F)C(F)(F)C(F)(F)C(N)=O [Octafluoroadipamide]; experiment: as above; conditions: in DMSO
Description: as §2

Nonafluoropentanamide = compound: NC(=O)C(F)(F)C(F)(F)C(F)(F)C(F)(F)F [Nonafluoropentanamide]; experiment: as above; conditions: in DMSO
Description: as §2

[12] = compound: T1, 11-H-Perfluoroundecanoic acid; experiment: as above; conditions: in DMSO
Description: as §2

[13] = compound: FC(F)(F)C(F)(F)CNCC(F)(F)C(F)(F)F [Bis(1H,1H-perfluoropropyl)amine]; experiment: as above; conditions: in DMSO
Description: as §2

[14] = compound: O=S(=O)(O)CCC(F)(F)C(F)(F)C(F)(F)C(F)(F)C(F)(F)C(F)(F)F [6:2 Fluorotelomer sulfonic acid]; experiment: as above; conditions: in DMSO
Description: as §2

Heptafluorobutyl iodide = compound: FC(F)(F)C(F)(F)C(F)(F)CI [Heptafluorobutyl iodide]; experiment: as above; conditions: in DMSO
Description: as §2

[15] = compound: C=C(C)C(=O)OCCC(F)(F)C(F)(F)C(F)(F)C(F)(F)C(F)(F)C(F)(F)F [6:2 Fluorotelomer methacrylate]; experiment: as above; conditions: in DMSO
Description: as §2

[16] = compound: FC(F)(F)C(F)(F)C(F)(F)C(F)(F)C(F)(F)C(F)(F)CC1CO1 [3-(Perfluorohexyl)-1,2-epoxypropane]; experiment: as above; conditions: in DMSO
Description: as §2

[17] = compound: FC(F)(F)C(F)(F)C(F)(F)CC1CO1 [1H,1H-Heptafluorobutyl epoxide]; experiment: as above; conditions: in DMSO
Description: as §2

BF4T MMP3 down was tested, and the “LOEC (log10 uM)” value [1] was 1.78.

In the case of CASM3C Proliferation down, the “LOEC (log10 uM)” value [2] is reported as 0.573 ± 0.39.

With 3C ICAM1 down the “LOEC (log10 uM)” value [2] was 1.3.

BF4T CD90 down was tested, and the “LOEC (log10 uM)” value [1] was 1.54 ± 0.34.

LPS IL1a down was tested, and the “LOEC (log10 uM)” value [2] was 1.3.

In the case of BT Bcell Proliferation down, the “LOEC (log10 uM)” value [2] is reported as 0.845.

For MyoF TIMP1 down, the “LOEC (log10 uM)” value [2] was 1.3.

In the case of MyoF Decorin down, the “LOEC (log10 uM)” value [2] is reported as 1.3.

In the case of LPS:M-CSF, the “level (log10)” value ([3]; 6700 nM) is reported as -0.0065 ± 0.013, the “level (log10)” value ([3]; 20000 nM) is reported as -0.0105 ± 0.0064 and the “level (log10)” value ([4]; 6700 nM) is reported as -0.005 ± 0.021. For the same test system, the “level (log10)” value ([4]; 20000 nM) was 0.0045 ± 0.0092, the “level (log10)” value ([4]; 60000 nM) was 0.006 ± 0.017 and the “level (log10)” value ([5]; 6700 nM) was -0.013 ± 0.028. The “level (log10)” value ([5]; 20000 nM) was -0.011 ± 0.0014, the “level (log10)” value ([5]; 60000 nM) was 0.0065 ± 0.023 and the “level (log10)” value ([6]; 6700 nM) was -0.011 ± 0.041. For the same test system, the “level (log10)” value ([6]; 20000 nM) was -0.0065 ± 0.0092, the “level (log10)” value ([6]; 60000 nM) was 0.0035 ± 0.0035 and the “level (log10)” value ([7]; 1500 nM) was 0.0045 ± 0.021. The “level (log10)” value ([7]; 4400 nM) was 0.005 ± 0.0057, the “level (log10)” value ([7]; 13000 nM) was 0.01 ± 0.027 and the “level (log10)” value ([7]; 40000 nM) was -0.006 ± 0.037. The “level (log10)” value [8] was -0.0655 ± 0.026, the “level (log10)” value (Hexafluoroamylene glycol; 6700 nM) was -0.0075 ± 0.016 and the “level (log10)” value (Hexafluoroamylene glycol; 20000 nM) was 0.0115 ± 0.0078. For the same test system, the “level (log10)” value (Hexafluoroamylene glycol; 60000 nM) was -0.003 ± 0.035, the “level (log10)” value ([9]; 6700 nM) was 0.023 ± 0.047 and the “level (log10)” value ([9]; 20000 nM) was 0.0155 ± 0.086. The “level (log10)” value ([10]; 6700 nM) was -0.079 ± 0.045, the “level (log10)” value ([10]; 20000 nM) was -0.0105 ± 0.025 and the “level (log10)” value ([10]; 60000 nM) was 0.116 ± 0.035. The “level (log10)” value ([11]; 6700 nM) was -0.022 ± 0.016, the “level (log10)” value ([11]; 20000 nM) was -0.0155 ± 0.0021 and the “level (log10)” value ([11]; 60000 nM) was -0.081 ± 0.0057. For the same test system, the “level (log10)” value (Octafluoroadipamide; 6700 nM) was -0.029 ± 0.14, the “level (log10)” value (Octafluoroadipamide; 20000 nM) was 0.0205 ± 0.052 and the “level (log10)” value (Octafluoroadipamide; 60000 nM) was 0.023 ± 0.047. For the same test system, the “level (log10)” value (Nonafluoropentanamide; 6700 nM) was 0.0065 ± 0.07, the “level (log10)” value (Nonafluoropentanamide; 20000 nM) was -0.0075 ± 0.04 and the “level (log10)” value (Nonafluoropentanamide; 60000 nM) was -0.011 ± 0.0042. For the same test system, the “level (log10)” value ([12]; 6700 nM) was -0.0035 ± 0.018, the “level (log10)” value ([12]; 20000 nM) was 0.012 ± 0.038 and the “level (log10)” value ([13]; 6700 nM) was -0.006 ± 0.083. The “level (log10)” value ([13]; 20000 nM) was -0.0485 ± 0.12, the “level (log10)” value ([13]; 60000 nM) was -0.0485 ± 0.087 and the “level (log10)” value ([14]; 6700 nM) was -0.0045 ± 0.015. The “level (log10)” value ([14]; 20000 nM) was 0.004 ± 0.03, the “level (log10)” value ([14]; 60000 nM) was 0.0485 ± 0.039 and the “level (log10)” value (Heptafluorobutyl iodide; 6700 nM) was -0.0225 ± 0.0064. The “level (log10)” value (Heptafluorobutyl iodide; 20000 nM) was 0.007 ± 0.023, the “level (log10)” value (Heptafluorobutyl iodide; 60000 nM) was 0.0065 ± 0.011 and the “level (log10)” value ([15]; 6700 nM) was 0.0215 ± 0.025. For the same test system, the “level (log10)” value ([15]; 20000 nM) was 0.0305 ± 0.0064, the “level (log10)” value ([15]; 60000 nM) was 0.0275 ± 0.028 and the “level (log10)” value ([16]; 6700 nM) was -0.004 ± 0.0099. The “level (log10)” value ([16]; 20000 nM) was -0.013 ± 0.0028, the “level (log10)” value ([16]; 60000 nM) was 0.0055 ± 0.0035 and the “level (log10)” value ([17]; 6700 nM) was -0.019 ± 0.02. For the same test system, the “level (log10)” value ([17]; 20000 nM) was 0.0005 ± 0.036 and the “level (log10)” value ([17]; 60000 nM) was 0.0255 ± 0.053.
